Experimental data as given in US8435778B2, “Gene encoding lignan methyltransferase and use thereof” (Suntory Holdings Limited, priority 2010, dated 2013).

Test system: AsOMT116
Test: Enzyme reaction of crude recombinant AsOMT116 with thujaplicatin and S-adenosylmethionine, product analysed by GC-MS
Assay type: biochemical, Anthrissus sylvestris
Conditions: 0.01 mM substrate, 0.04 mM S-adenosylmethionine, about 3 mg crude enzyme from E. coli, pH 7.5, 30° C., one hour; product identified as 5-methylthujaplicatin by GC-MS
Method: To clarify the biochemical enzyme functions, the enzymes were expressed in Escherichia coli. Using the plasmid for expression of AsOMT116 Escherichia coli obtained above, Escherichia coli BL21 (DE3) strain was transformed in a conventional manner. The resulting transformants were inoculated in 4 ml of LB medium (10 g/l tryptone peptone, 5 g/l yeast extract, 1 g/l NaCl) containing 50 μg/ml of ampicillin followed by shake culture at 37° C. overnight. When the cells reached the stationary phase, 4 ml of the culture broth was inoculated into 80 ml of fresh medium of the same composition, followed by shake culture at 37° C. At the point when the cell turbidity (OD600) reached approximately 0.5, 0.5 mM IPTG in a final concentration was added to the cells, followed by shake culture at 18° C. for 20 hours.
The following procedures were all carried out at 4° C. The transformants cultured were collected by centrifugation (5,000×g, 10 minutes) and suspended by adding 1 ml/g cell of lysis buffer (20 mM HEPES buffer (pH 7.5), 14 mM β-mercaptoethanol). Subsequently, the suspension was ultrasonicated (15 secs.×8 times) and then centrifuged (15,000×g, 15 minutes). The supernatant (soluble fraction) obtained was recovered as a crude enzyme solution. The crude enzyme solution was used for enzyme analysis.
Conditions for the enzyme reaction are as follows. […]

lignan methylation activity (methylation of substrate by AsOMT116): specifically methylates the 5-position
SMILES: COc1cc(C[C@H]2COC(=O)[C@@H]2Cc2cc(O)c(O)c(OC)c2)ccc1O [thujaplicatin]
